Experimental data published in publication PMC7175962 (Journal of medicinal chemistry, 2019).
≈ marks a conversion by molar mass, not a printed value.

Tests used:
[1] = test system: K. pneumoniae C2 (KPC-2), clinical strain; assay: Checkerboard assay, imipenem plus inhibitor; format: cell-based
VIM-2 = VIM-2 (Pseudomonas aeruginosa, UniProt Q9K2N0); assay: VIM-2 inhibition, nitrocefin hydrolysis assay; format: biochemical; conditions: VIM-2 versus NDM-1
[2] = test system: P. aeruginosa(eflx+) 4177 (NDM-1); assay: Checkerboard assay, imipenem plus inhibitor; format: cell-based
[3] = Kinetic solubility in pH 7.4 PBS; format: physicochemical
[4] = test system: P. aeruginosa 4882 (VIM-2), lacking efflux pumps; assay: Checkerboard assay, imipenem plus inhibitor; format: cell-based
KPC-2 = KPC-2 (Klebsiella pneumoniae, UniProt Q9F663); format: biochemical
Sequence of KPC-2 (Q9F663 25-293, looked up): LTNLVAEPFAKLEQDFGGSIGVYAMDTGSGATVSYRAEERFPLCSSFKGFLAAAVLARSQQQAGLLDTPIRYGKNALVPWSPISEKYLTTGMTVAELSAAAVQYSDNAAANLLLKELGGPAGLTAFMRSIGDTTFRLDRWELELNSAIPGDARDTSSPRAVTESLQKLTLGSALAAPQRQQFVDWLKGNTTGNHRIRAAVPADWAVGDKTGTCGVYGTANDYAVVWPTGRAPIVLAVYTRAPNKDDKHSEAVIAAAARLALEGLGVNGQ

[5] = test system: Gram-negative pathogens (all strains); assay: Antibacterial activity of inhibitors alone; format: cell-based; conditions: for antibacterial effects by itself, without imipenem: 128 μg/mL; for MIC: read-out: MIC of compound tested alone
[6] = test system: P. aeruginosa 4129 (NDM-1), lacking efflux pumps; assay: Checkerboard assay, imipenem plus inhibitor; format: cell-based
[7] = test system: P. aeruginosa 4135 (KPC-2), lacking efflux pumps; assay: Checkerboard assay, imipenem plus inhibitor; format: cell-based; conditions: Pseudomonas aeruginosa, read-out: MIC of imipenem
[8] = test system: P. aeruginosa 4173 (vector); assay: MIC of imipenem, vector control strain; format: cell-based; conditions: Pseudomonas aeruginosa, read-out: MIC of imipenem
[9] = test system: P. aeruginosa 4698 (VIM-2); assay: MIC of imipenem in combination with inhibitor; format: cell-based
[10] = test system: P. aeruginosa(eflx+) 4402 (VIM-2); assay: Checkerboard assay, imipenem plus inhibitor; format: cell-based; conditions: Pseudomonas aeruginosa, read-out: MIC of imipenem
[11] = test system: K. pneumoniae 5979 (NDM-1); assay: MIC of imipenem in combination with inhibitor; format: cell-based; conditions: for reduction of imipenem MIC: compound at 128 μg/mL, NDM-1 producing K. pneumoniae
[12] = test system: P. aeruginosa(eflx+) 4175 (vector); assay: MIC of imipenem, vector control strain; format: cell-based; conditions: Pseudomonas aeruginosa, read-out: MIC of imipenem
E. cloacae 5981 (NDM-1) = assay: MIC of imipenem in combination with inhibitor; format: cell-based; conditions: for reduction of imipenem MIC: compound at 128 μg/mL, NDM-1 producing E. cloacae
E. coli 5980 (NDM-1) = assay: MIC of imipenem in combination with inhibitor; format: cell-based; conditions: for reduction of imipenem MIC: compound at 128 μg/mL, NDM-1 producing E. coli
[13] = test system: K. pneumoniae 4683 (KPC-2); assay: MIC of imipenem in combination with inhibitor; format: cell-based; conditions: Klebsiella pneumoniae, read-out: MIC of imipenem
NDM-1 = NDM-1 (Klebsiella pneumoniae, UniProt C7C422); assay: NDM-1 inhibition, nitrocefin hydrolysis assay; format: biochemical
Sequence of NDM-1 (C7C422 29-270, looked up): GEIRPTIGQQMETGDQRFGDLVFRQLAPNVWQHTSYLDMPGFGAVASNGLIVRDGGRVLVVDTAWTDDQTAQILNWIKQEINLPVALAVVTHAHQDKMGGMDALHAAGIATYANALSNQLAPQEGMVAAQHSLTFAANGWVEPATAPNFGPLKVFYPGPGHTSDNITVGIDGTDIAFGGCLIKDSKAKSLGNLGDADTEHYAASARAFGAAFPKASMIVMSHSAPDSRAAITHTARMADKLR

[14] = Pseudomonas aeruginosa, read-out: MIC of imipenem
[15] = Klebsiella pneumoniae, read-out: MIC of imipenem

SMILES: NC(=O)[C@@H]1CC[C@@H]2CN1C(=O)N2OS(=O)(=O)O [avibactam]
- MIC of imipenem in the presence of avibactam ([1]; avibactam at 16 μg/mL): 1 µg/mL
- reduction of imipenem MIC ([1]; inhibitor at 16 μg/mL): 512 fold

SMILES: O=c1cc(CP(=O)(O)O)c2c(Br)cc(Br)cc2[nH]1 [Compound 16, [(5,7-dibromo-2-oxo-1,2-dihydroquinolin-4-yl)methyl]phosphonic acid]
- higher affinity for VIM-2 than NDM-1 (VIM-2): ~ 100 x
- decrease in potency by overexpressing efflux pumps, against NDM-1 ([2]; eflx+ versus efflux-deleted strain): up to 4 fold
- solubility kinetic [3]: 95.9 µg/mL (≈ 242 µM)
- reduction of imipenem MIC ([4]; 16 at 128 μg/mL, maximum observable): 16 fold
- MIC of imipenem in the presence of 16 ([1]; 16 at 16 μg/mL): 16 µg/mL
- increase in activity on replacing C7-Me in 9 by -Br (KPC-2) (KPC-2; relative to compound 9): ~ 12 fold
- activity improved over the parent DHQ analog 11 (KPC-2) (KPC-2; relative to compound 11): ~ 7,000 fold
- antibacterial effects by itself, without imipenem [5]: neither 9 nor 16 showed any antibacterial effects
- reduction of imipenem MIC ([6]; 16 at 128 μg/mL): 16 fold

SMILES: C[C@@H](O)[C@H]1C(=O)N2C(C(=O)O)=C(SCCN=CN)C[C@H]12 [Imipenem, imipenem, reference compound]
- MIC [2, 14]: 128 µg/mL
- MIC [4, 14]: 32 µg/mL
- MIC [7]: 64 µg/mL
- MIC [8]: 2 µg/mL
- MIC [9, 14]: > 64 µg/mL
- MIC [1, 15]: 512 µg/mL
- MIC [10]: 32 µg/mL
- MIC [11, 15]: > 64 µg/mL
- MIC [12]: 2 µg/mL
- MIC (E. cloacae 5981 (NDM-1); Enterobacter cloacae, read-out: MIC of imipenem): 2 µg/mL
- MIC (E. coli 5980 (NDM-1); Escherichia coli, read-out: MIC of imipenem): 8 µg/mL
- MIC [13]: 64 µg/mL
- MIC [6, 14]: 128 µg/mL

SMILES: O=c1cc(CP(=O)(O)O)c2ccccc2[nH]1 [Compound 11, [(2-oxo-1,2-dihydroquinolin-4-yl)methyl]phosphonic acid]
- MIC of imipenem in the presence of compound ([9]; compound at 128 μg/mL): >64 µg/mL
- reduction of imipenem MIC [11]: little if any effect
- reduction of imipenem MIC (E. cloacae 5981 (NDM-1)): little if any effect
- reduction of imipenem MIC (E. coli 5980 (NDM-1)): little if any effect
- MIC [5]: > 128 µg/mL

SMILES: Cc1cc(Br)c2c(CP(=O)(O)O)cc(=O)oc2c1 [Compound 9, [(5-bromo-7-methyl-2-oxo-2H-chromen-4-yl)methyl]phosphonic acid]
- reduction of imipenem MIC [11]: more than 2 fold
- reduction of imipenem MIC (E. cloacae 5981 (NDM-1)): did not have any activity
- reduction of imipenem MIC (E. coli 5980 (NDM-1)): 4 fold
- antibacterial effects by itself, without imipenem [5]: neither 9 nor 16 showed any antibacterial effects
- MIC [5]: > 128 µg/mL

SMILES: O=P(O)(O)Cc1ccnc2ccccc12 [Compound 15, [(quinolin-4-yl)methyl]phosphonic acid]
- potencies and ligand efficiencies inferior to DHQ comparator 11 (KPC-2) (KPC-2; relative to compound 11): 2–5 times

SMILES: O=c1cc(CP(=O)(O)O)c2c(F)cc(F)cc2o1 [Compound 8, [(5,7-difluoro-2-oxo-2H-chromen-4-yl)methyl]phosphonic acid]
- Ki (NDM-1) (NDM-1; nitrocefin substrate, 37 °C, pH 7.2, 50 μM zinc sulfate): did not show inhibition
- NDM-1 inhibition after pre-incubation of the compound with NDM-1 (NDM-1; pre-incubation, data not shown): weak inhibitory activity

SMILES: Cc1cc(C)c2c(CP(=O)(O)O)cc(=O)[nH]c2c1 [Compound 13, [(5,7-dimethyl-2-oxo-1,2-dihydroquinolin-4-yl)methyl]phosphonic acid]
- solubility kinetic [3]: 51.6 µg/mL (≈ 193 µM)
- MIC of imipenem in the presence of compound ([9]; compound at 128 μg/mL): >64 µg/mL
- reduction of imipenem MIC ([9]; compound at 128 μg/mL, VIM-2 producing P. aeruginosa): unable to rescue imipenem activity
- reduction of imipenem MIC [11]: unable to rescue imipenem activity
- reduction of imipenem MIC (E. cloacae 5981 (NDM-1)): unable to rescue imipenem activity
- reduction of imipenem MIC (E. coli 5980 (NDM-1)): 4 fold
- MIC [5]: > 128 µg/mL
